Structures can show the parent of a compound that is named as a salt.
Target: T1, recombinant human LTA4 hydrolase (rhLTA4H) (Homo sapiens, UniProt P09960)
T1 construct: made in house; host or cells: Spodoptera frugiperda (Sf-9) cells, baculovirus (pFastBac1)
T1 sequence (P09960 1-611): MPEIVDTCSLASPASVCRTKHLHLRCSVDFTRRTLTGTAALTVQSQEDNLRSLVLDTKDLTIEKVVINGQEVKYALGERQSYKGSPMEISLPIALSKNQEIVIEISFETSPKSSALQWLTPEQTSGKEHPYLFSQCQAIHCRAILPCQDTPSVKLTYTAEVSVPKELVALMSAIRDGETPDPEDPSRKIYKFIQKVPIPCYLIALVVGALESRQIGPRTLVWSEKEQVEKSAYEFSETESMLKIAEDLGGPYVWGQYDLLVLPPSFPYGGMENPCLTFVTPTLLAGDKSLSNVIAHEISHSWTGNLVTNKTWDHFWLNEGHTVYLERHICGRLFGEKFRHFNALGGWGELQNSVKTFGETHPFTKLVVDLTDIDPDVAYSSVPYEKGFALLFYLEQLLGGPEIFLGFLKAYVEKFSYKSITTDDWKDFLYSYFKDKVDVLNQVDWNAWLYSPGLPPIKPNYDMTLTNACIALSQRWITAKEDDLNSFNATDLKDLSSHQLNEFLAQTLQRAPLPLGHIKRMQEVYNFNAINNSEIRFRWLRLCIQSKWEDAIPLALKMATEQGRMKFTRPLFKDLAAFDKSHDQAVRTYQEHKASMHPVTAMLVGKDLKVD
Assay: Recombinant Human LTA4 Hydrolase Assay for LTA4 Hydrolase Inhibitor Activity
Format: biochemical
Details: average of results obtained; LTB4 quantified by enzyme-linked immunoassay
Procedure, shortened: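 LTB4 formation, quantified by EIA after 10 min at rt, was the read-out once 9 ng LTA4 (free acid) was added to recombinant human enzyme (36 ng, Sf-9 expressed) that had sat 10 min with compound. Buffer: 0.1 M potassium phosphate pH 7.4 with fatty-acid-free BSA; IC50 by 4-parameter fit.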

Structure (SMILES) | Ki [nM]
CC(=O)N1C[C@@H]2C[C@H]1CN2Cc1ccc(Oc2nc3c(F)cccc3s2)cc1 [Example 207, (S,S)-1-{5-[4-(4-Fluoro-benzothiazol-2-yloxy)-benzyl]-2,5-diaza-bicyclo[2.2.1]hept-2-yl}-ethanone] | 6
NC(=O)N[C@@H]1C[C@H]2CC[C@@H](C1)N2CCOc1ccc(Oc2nc3c(F)cccc3s2)cc1 [Example 204, meso-exo-(8-{2-[4-(4-Fluoro-benzothiazol-2-yloxy)-phenoxy]-ethyl}-8-aza-bicyclo[3.2.1]oct-3-yl)-urea] | 5
CS(=O)(=O)N1C[C@H]2C[C@@H]1CN2CCc1ccc(Oc2nc3cccc(Cl)c3s2)cc1 [Example 192, (R,R)-7-Chloro-2-{4-[2-(5-methanesulfonyl-2,5-diaza-bicyclo[2.2.1]hept-2-yl)-ethyl]-phenoxy}-benzothiazole] | > 10000
CC(=O)N1C[C@H]2C[C@@H]1CN2Cc1ccc(Oc2nc3cc(F)ccc3s2)cc1 [Example 183, (R,R)-1-{5-[4-(5-Fluoro-benzothiazol-2-yloxy)-benzyl]-2,5-diaza-bicyclo[2.2.1]hept-2-yl}-ethanone] | 383
O=C(c1ccsc1)N1CC2CN(Cc3ccc(Oc4nc5ccccc5s4)cc3)CC2C1 (stereo not drawn) [Example 109, {5-[4-(Benzothiazol-2-yloxy)-benzyl]-hexahydro-pyrrolo[3,4-c]pyrrol-2-yl}-thiophen-3-yl-methanone] | 135
O=C(N1CCOCC1)N1CC2CN(Cc3ccc(Oc4nc5ccccc5s4)cc3)CC2C1 (stereo not drawn) [Example 115, {5-[4-(Benzothiazol-2-yloxy)-benzyl]-hexahydro-pyrrolo[3,4-c]pyrrol-2-yl}-morpholin-4-yl-methanone] | 10
c1ccc2sc(Oc3ccc(CN4C[C@@H]5C[C@H]4CN5)cc3)nc2c1 [Example 1B, (S,S)-2-[4-(2,5-Diaza-bicyclo[2.2.1]hept-2-ylmethyl)-phenoxy]-benzothiazole hydrochloride] | 54
c1ccc2sc(Oc3ccc(CN4CCC5CNCC54)cc3)nc2c1 (stereo not drawn) [Example 82, 2-[4-(Hexahydro-pyrrolo[3,4-b]pyrrol-1-ylmethyl)-phenoxy]-benzothiazole hydrochloride] | 97
COCC(=O)N1C[C@@H]2C[C@H]1CN2CCc1ccc(Oc2nc3ccccc3s2)cc1 [Example 42] | 34
CS(=O)(=O)N1C[C@H]2C[C@@H]1CN2Cc1ccc(Oc2nc3ccccc3s2)cc1 [Example 46, (R,R)-2-[4-(5-Methanesulfonyl-2,5-diaza-bicyclo[2.2.1]hept-2-ylmethyl)-phenoxy]-benzothiazole] | 32
NC(=O)N1CC2CN(Cc3ccc(Oc4nc5c(F)cccc5s4)cc3F)CC2C1 (stereo not drawn) [Example 161, 5-[2-Fluoro-4-(4-fluoro-benzothiazol-2-yloxy)-benzyl]-hexahydro-pyrrolo[3,4-c]pyrrole-2-carboxylic acid amide] | 43
CC(=O)N1CC2CCC(C1)N2CCc1ccc(Oc2nc3ccc(Cl)cc3s2)cc1 [Example 250, meso-1-(8-{2-[4-(6-Chloro-benzothiazol-2-yloxy)-phenyl]-ethyl}-3,8-diaza-bicyclo[3.2.1]oct-3-yl)-ethanone] | 232
CS(=O)(=O)N1C[C@H]2C[C@@H]1CN2CCc1ccc(Oc2nc3c(F)cccc3s2)cc1 [Example 241, (R,R)-4-Fluoro-2-{4-[2-(5-methanesulfonyl-2,5-diaza-bicyclo[2.2.1]hept-2-yl)-ethyl]-phenoxy}-benzothiazole] | 281
CS(=O)(=O)N1C[C@H]2C[C@@H]1CN2CCOc1ccc(Oc2nc3ccccc3s2)cc1 [Example 223, (R,R)-2-{4-[2-(5-Methanesulfonyl-2,5-diaza-bicyclo[2.2.1]hept-2-yl)-ethoxy]-phenoxy}-benzothiazole] | 64
NC(=O)N[C@H]1C[C@H]2CC[C@@H](C1)N2Cc1ccc(Cc2nc3ccccc3s2)cc1 [Example 36, meso-endo-[8-(4-Benzothiazol-2-ylmethyl-benzyl)-8-aza-bicyclo[3.2.1]oct-3-yl]-urea] | 94
CS(=O)(=O)N1CC2CCC(C1)N2CCOc1ccc(Oc2nc3ccc(Cl)cc3s2)cc1 [Example 169, meso-6-Chloro-2-{4-[2-(3-methanesulfonyl-3,8-diaza-bicyclo[3.2.1]oct-8-yl)-ethoxy]-phenoxy}-benzothiazole] | 693
CC(C)(C)OC(=O)N1CC(C(=O)N2C[C@@H]3C[C@H]2CN3Cc2ccc(Oc3nc4ccccc4s3)cc2)C1 [Example 64, (S,S)-3-{5-[4-(Benzothiazol-2-yloxy)-benzyl]-2,5-diaza-bicyclo[2.2.1]heptane-2-carbonyl}-azetidine-1-carboxylic acid tert-butyl ester] | 58

Structure (SMILES) | Ki [nM]
CS(=O)(=O)N1C[C@H]2C[C@@H]1CN2Cc1ccc(Oc2nc3ccc(F)cc3s2)cc1 [Example 201, (R,R)-6-Fluoro-2-[4-(5-methanesulfonyl-2,5-diaza-bicyclo[2.2.1]hept-2-ylmethyl)-phenoxy]-benzothiazole] | 145
O=C(CO)N1C[C@@H]2C[C@H]1CN2CCc1cccc(Oc2nc3ccccc3s2)c1 [Example 20, (S,S)-1-(5-{2-[3-(Benzothiazol-2-yloxy)-phenyl]-ethyl}-2,5-diaza-bicyclo[2.2.1]hept-2-yl)-2-hydroxy-ethanone] | 73
CC(=O)N1[C@@H]2CC[C@H]1C[C@@H](NCCc1ccc(Oc3nc4ccc(Cl)cc4s3)cc1)C2 [Example 224, meso-endo-1-(3-{2-[4-(6-Chloro-benzothiazol-2-yloxy)-phenyl]-ethylamino}-8-aza-bicyclo[3.2.1]oct-8-yl)-ethanone] | 33
O=C(O)CN1CC2CN(Cc3ccc(Oc4nc5ccccc5s4)cc3)CC2C1 (stereo not drawn) [Example 158, {5-[4-(Benzothiazol-2-yloxy)-benzyl]-hexahydro-pyrrolo[3,4-c]pyrrol-2-yl}-acetic acid] | 48
CC(=O)N1C[C@H]2C[C@@H]1CN2CCc1ccc(Oc2nc3cc(F)ccc3s2)cc1 [Example 235, (R,R)-1-(5-{2-[4-(5-Fluoro-benzothiazol-2-yloxy)-phenyl]-ethyl}-2,5-diaza-bicyclo[2.2.1]hept-2-yl)-ethanone] | 23
CC(=O)N1CC2CN(CCc3ccc(Oc4nc5ccc(C)cc5s4)cc3)CC2C1 (stereo not drawn) [Example 148, 1-(5-{2-[4-(6-Methyl-benzothiazol-2-yloxy)-phenyl]-ethyl}-hexahydro-pyrrolo[3,4-c]pyrrol-2-yl)-ethanone] | 229
NCC(=O)N1CC2CCN(Cc3ccc(Oc4nc5ccccc5s4)cc3)C2C1 (stereo not drawn) [Example 96, 2-Amino-1-{1-[4-(benzothiazol-2-yloxy)-benzyl]-hexahydro-pyrrolo[3,4-b]pyrrol-5-yl}-ethanone] | 26
CC(=O)N[C@H]1C[C@H]2CC[C@@H](C1)N2Cc1ccc(Oc2nc3ccccc3s2)cc1 [Example 52, meso-endo-N-{8-[4-(Benzothiazol-2-yloxy)-benzyl]-8-aza-bicyclo[3.2.1]oct-3-yl}-acetamide] | 2
NCC(=O)N1CC2CN(Cc3ccc(Oc4nc5ccccc5s4)cc3)CC2C1 (stereo not drawn) [Example 97, 2-Amino-1-{5-[4-(benzothiazol-2-yloxy)-benzyl]-hexahydro-pyrrolo[3,4-c]pyrrol-2-yl}-ethanone] | 33
NC(=O)N[C@@H]1C[C@H]2CC[C@@H](C1)N2Cc1ccc(Oc2nc3cc(F)ccc3s2)cc1 [Example 260, meso-exo-{8-[4-(5-Fluoro-benzothiazol-2-yloxy)-benzyl]-8-aza-bicylclo[3.2.1]oct-3-yl}-urea] | 26
NC(=O)N1C[C@H]2C[C@@H]1CN2CCc1ccc(Oc2nc3cc(F)ccc3s2)cc1 [Example 244, (R,R)-5-{2-[4-(5-Fluoro-benzothiazol-2-yloxy)-phenyl]-ethyl}-2,5-diaza-bicyclo[2.2.1]heptane-2-carboxylic acid amide] | 12
NC(=O)N1C[C@H]2C[C@@H]1CN2Cc1ccc(Oc2nc3c(F)cccc3s2)cc1 [Example 186, (R,R)-5-[4-(4-Fluoro-benzothiazol-2-yloxy)-benzyl]-2,5-diaza-bicyclo[2.2.1]heptane-2-carboxylic acid amide] | 10
O=S(=O)(c1cccs1)N1CC2CN(Cc3ccc(Oc4nc5ccccc5s4)cc3)CC2C1 (stereo not drawn) [Example 124, 2-{4-[5-(Thiophene-2-sulfonyl)-hexahydro-pyrrolo[3,4-c]pyrrol-2-ylmethyl]-phenoxy}-benzothiazole] | 2290
CC(=O)N[C@H]1C[C@H]2CC[C@@H](C1)N2CCOc1ccc(Oc2nc3ccc(C)cc3s2)cc1 [Example 271] | 79
Cc1ccc2nc(Oc3ccc(CN4CC5CN(C(N)=O)CC5C4)cc3)sc2c1 (stereo not drawn) [Example 145, 5-[4-(6-Methyl-benzothiazol-2-yloxy)-benzyl]-hexahydro-pyrrolo[3,4-c]pyrrole-2-carboxylic acid amide] | 597
CS(=O)(=O)N[C@@H]1C[C@H]2CC[C@@H](C1)N2CCc1ccc(Oc2nc3ccc(F)cc3s2)cc1 [Example 231, meso-exo-N-(8-{2-[4-(6-Fluoro-benzothiazol-2-yloxy)-phenyl]-ethyl}-8-aza-bicyclo[3.2.1]oct-3-yl)-methanesulfonamide] | 17

From patent US8344008B2 (Janssen Pharmaceutica NV, priority 2007, dated 2013)
